According to patent US20220106282A1, “TREATMENT FOR BREAST CANCER, INCLUDING TRIPLE-NEGATIVE BREAST CANCER” (priority 2018, published 2022):
“And” between values parts separate entries of the source, which are not always exact repeats. Equal entries are not always repeated. Marks after values point to notes of the source that are not given here.

Key:
ovariectomized rats = assay: Biochemical parameters of ovariectomized rats; format: in vivo, rat; settings: ovariectomised rats
[1] = system: normal human skin fibroblasts; assay: Growth of normal human skin fibroblasts (nonspecific effects); format: cell-based; settings: concentration of 20 μg/ml; cells having no estrogen receptors
Description: The cells were seeded on Carrel vials at 50×10^4 cells per flask. To study the proliferative activity of the cells under conditions of sulfatase inhibition, 24 […], and then these tumor cell lines were incubated for various periods of time (24 to 72 hrs). The inhibitor was dissolved in DMSO. […] To exclude the cytotoxic effect of DMSO, a control sample comprising DMSO without sulfatase inhibitor was prepared. To exclude nonspecific detrimental effects of the compounds, normal human skin fibroblasts were used. Then the cells were detached with the versene-trypsin solution (Biolot), plated onto Carrel vials containing a fresh complete culture medium. The cells were counted when untreated control cells reached the maximum cell density per unit of surface area of a culture flask (monolayer), and their number was set as 100%. The proliferative activity of all of the studied cell cultures exposed to sulfatase inhibitors was determined in triplicate.

[2] = system: breast tumors in female FVB mice transgenic for HER-2/neu; assay: Antitumor activity on model of multiple breast tumors in HER-2/neu transgenic mice; settings: for % of change from baseline (average total tumor volume) / % of change to the initial value (average tumor volume): Day 27 vs Day −1; for Average volume of new tumors, % less than that of the control group: end of observation; for Absolute number of new tumors / Frequency of tumor stabilizations: end of study; for Frequency of tumor stabilizations: volume not increased by more than 20%; for Average volume of new tumors at the end of the observation period (M): listed as medicament
Description: Two adenocarcinoma subtypes can be differentiated, in particular ER+, PR−, and ER−, PR− [2].
The study was carried out in female FVB mice transgenic for HER-2/neu by conventional category; the strain was obtained from the mouse bank Charles River Laboratories (Italy). At the beginning of the study the animals were 21-41 weeks old having weight of 25 to 30 g.
The study medicament was administered i.g. using a metal atraumatic gavage (with the procedure corresponds to the oral route of administration in clinical settings). The medicament was administered in a single daily dose (20 mg/kg of body weight) and 5-fold daily dose of 100 mg/kg of body weight. Ex tempore solutions of the medicament for administration were prepared in olive oil (refined olive oil supplemented with unrefined extra virgin olive oil available under Global Village “Clasico” trademark, lot L:183351116, expiry date 26 Apr. 2020, BAIEO, Spain). The administered volume was 0.1 ml per 10 g of a mouse body weight (0.2 ml of a ready-to-use formulation for a mouse of 20 g). The medicament administration was started 24 hours after the randomization. The duration of the administration course was 27-28 days.
This dose corresponds to a human daily dose of 20 mg/kg.
The control groups were given the olive oil (placebo).
The evaluation criteria included the clinical observation data, animals body weights, time of death (if applicable), tumor growth over time, pathomorphological examination data (verification of a neoplasm during autopsy, assessment of toxic effects by macroscopic presentation of changes in the internal organs).
The animals body weights were recorded before the first administration of the medicaments and then twice per week using a verified high-speed electronic laboratory balance Ohaus Scout Pro (USA) with a maximum load of 2000 g and a measurement step of 0.1 g.
Macroscopically detectable tumor nodes were measured in animals once per week during weighing process. Two linear dimensions including the largest one and the largest rectangular to the former were recorded for each of the nodes. The largest dimension was taken as a length (a) and the second dimension as a width (b) of the tumor nodes. A tumor volume was calculated by the expression as follows: […]
The efficacy of the therapy was assessed by recording a change in the average tumor volume, tumor growth inhibition (TGI), and the average total tumor volumes and its change over time in each of the mice.
The percent of tumor growth inhibition was calculated by the expression as follows:
TGI=(Vctrl−Vexp)/Vctrl×100(%),
where Vctrl is an average tumor volume in a control group, and Vexp is an average tumor volume in an experimental group.
The primary data from individual forms were transferred to Microsoft Excel 2007 books. The group arithmetic average (M) and standard deviation (m) were calculated for all quantitative data. The statistical analysis was performed using the statistical software GraphPad Prism 6.0. The differences between the groups were assessed using ANOVA regression analysis and the Fisher's exact test.

SMILES: C[C@H]1Oc2cc(OS(N)(=O)=O)ccc2[C@H]2CC[C@]3(C)C(=O)CCC[C@H]3[C@H]21 [compound of formula (1), 3-O-sulphamoyloxy-7β-methyl-D-homo-6-oxa-8α-estra-1,3,5(10)-trien-17a-one]
- Uterotropic activity (ovariectomized rats): no uterotropic activity
- Uterus weight (ovariectomized rats; medicament 5 mg/kg bw): 33 ± 3 mg/100 g bw
- Growth of human skin fibroblasts [1]: does not influence the growth
- Average total volume of tumors in mice (M) ([2]; 20 mg/kg i.g. daily, Day 6): 0.86 cm^3
- Average volume of tumors present at the beginning of the experiment (M) ([2]; 20 mg/kg i.g. daily, Day 6): 0.32 cm^3
- Relative change of the average total volume of tumors to that of Day −1 (M) ([2]; 20 mg/kg i.g. daily, Day 6): 20%
- TGI (average total tumor volume) ([2]; 20 mg/kg i.g. daily, Day 6): −26%
- TGI (average tumor volume) ([2]; 20 mg/kg i.g. daily, Day 6): −7%
- Average total volume of tumors in mice (M) ([2]; 20 mg/kg i.g. daily, Day 13): 1.04 cm^3
- Average volume of tumors present at the beginning of the experiment (M) ([2]; 20 mg/kg i.g. daily, Day 13): 0.39 cm^3
- Relative change of the average total volume of tumors to that of Day −1 (M) ([2]; 20 mg/kg i.g. daily, Day 13): 38** %
- TGI (average total tumor volume) ([2]; 20 mg/kg i.g. daily, Day 13): 19%
- TGI (average tumor volume) ([2]; 20 mg/kg i.g. daily, Day 13): 30%
- Average total volume of tumors in mice (M) ([2]; 20 mg/kg i.g. daily, Day 20): 1.61 cm^3
- Average volume of tumors present at the beginning of the experiment (M) ([2]; 20 mg/kg i.g. daily, Day 20): 0.6 cm^3
- Relative change of the average total volume of tumors to that of Day −1 (M) ([2]; 20 mg/kg i.g. daily, Day 20): 101** %
- TGI (average total tumor volume) ([2]; 20 mg/kg i.g. daily, Day 20): −7%
- TGI (average tumor volume) ([2]; 20 mg/kg i.g. daily, Day 20): 9%
- Average total volume of tumors in mice (M) ([2]; 20 mg/kg i.g. daily, Day 27): 2.19 cm^3
- Average volume of tumors present at the beginning of the experiment (M) ([2]; 20 mg/kg i.g. daily, Day 27): 0.81 cm^3
- Relative change of the average total volume of tumors to that of Day −1 (M) ([2]; 20 mg/kg i.g. daily, Day 27): 212** %
- TGI (average total tumor volume) ([2]; 20 mg/kg i.g. daily, Day 27): −7%
- TGI (average tumor volume) ([2]; 20 mg/kg i.g. daily, Day 27): 9%
- % of change from baseline (average total tumor volume) ([2]; 20 mg/kg i.g. daily): 204%
- % of change to the initial value (average tumor volume) ([2]; 20 mg/kg i.g. daily): 200%
- Average total volume of tumors in mice (M) ([2]; 20 mg/kg i.g. daily, Day −1): 0.72 cm^3
- Average volume of tumors present at the beginning of the experiment (M) ([2]; 20 mg/kg i.g. daily, Day −1): 0.27 cm^3
- Relative change of the average total volume of tumors to that of Day −1 (M) ([2]; 20 mg/kg i.g. daily, Day −1): 0%
- TGI (average total tumor volume) ([2]; 20 mg/kg i.g. daily, Day −1): −71%
- TGI (average tumor volume) ([2]; 20 mg/kg i.g. daily, Day −1): −50%
- Average volume of new tumors, % less than that of the control group ([2]; 20 mg/kg i.g. daily): 18%
- Absolute number of new tumors ([2]; 20 mg/kg i.g. daily): 29
- Frequency of tumor stabilizations ([2]; 20 mg/kg i.g. daily): 19%
- Average volume of new tumors at the end of the observation period (M) ([2]; 20 mg/kg i.g. daily): 0.27±0.05 cm^3 and 0.27 cm^3
- Average total volume of tumors in mice (M) ([2]; 100 mg/kg i.g. daily, Day 6): 0.94 cm^3
- Average volume of tumors present at the beginning of the experiment (M) ([2]; 100 mg/kg i.g. daily, Day 6): 0.38 cm^3
- Relative change of the average total volume of tumors to that of Day −1 (M) ([2]; 100 mg/kg i.g. daily, Day 6): 26%
- TGI (average total tumor volume) ([2]; 100 mg/kg i.g. daily, Day 6): −38%
- TGI (average tumor volume) ([2]; 100 mg/kg i.g. daily, Day 6): −27%
- Average total volume of tumors in mice (M) ([2]; 100 mg/kg i.g. daily, Day 13): 1.15 cm^3
- Average volume of tumors present at the beginning of the experiment (M) ([2]; 100 mg/kg i.g. daily, Day 13): 0.46 cm^3
- Relative change of the average total volume of tumors to that of Day −1 (M) ([2]; 100 mg/kg i.g. daily, Day 13): 68** %
- TGI (average total tumor volume) ([2]; 100 mg/kg i.g. daily, Day 13): 11%
- TGI (average tumor volume) ([2]; 100 mg/kg i.g. daily, Day 13): 18%
- Average total volume of tumors in mice (M) ([2]; 100 mg/kg i.g. daily, Day 20): 1.36 cm^3
- Average volume of tumors present at the beginning of the experiment (M) ([2]; 100 mg/kg i.g. daily, Day 20): 0.55 cm^3
- Relative change of the average total volume of tumors to that of Day −1 (M) ([2]; 100 mg/kg i.g. daily, Day 20): 139* %
- TGI (average total tumor volume) ([2]; 100 mg/kg i.g. daily, Day 20): 10%
- TGI (average tumor volume) ([2]; 100 mg/kg i.g. daily, Day 20): 17%
- Average total volume of tumors in mice (M) ([2]; 100 mg/kg i.g. daily, Day 27): 1.74 cm^3
- Average volume of tumors present at the beginning of the experiment (M) ([2]; 100 mg/kg i.g. daily, Day 27): 0.7 cm^3
- Relative change of the average total volume of tumors to that of Day −1 (M) ([2]; 100 mg/kg i.g. daily, Day 27): 198** %
- TGI (average total tumor volume) ([2]; 100 mg/kg i.g. daily, Day 27): 15%
- TGI (average tumor volume) ([2]; 100 mg/kg i.g. daily, Day 27): 21%
- % of change from baseline (average total tumor volume) ([2]; 100 mg/kg i.g. daily): 102%
- % of change to the initial value (average tumor volume) ([2]; 100 mg/kg i.g. daily): 106%
- Average total volume of tumors in mice (M) ([2]; 100 mg/kg i.g. daily, Day −1): 0.86 cm^3
- Average volume of tumors present at the beginning of the experiment (M) ([2]; 100 mg/kg i.g. daily, Day −1): 0.34 cm^3
- Relative change of the average total volume of tumors to that of Day −1 (M) ([2]; 100 mg/kg i.g. daily, Day −1): 0%
- TGI (average total tumor volume) ([2]; 100 mg/kg i.g. daily, Day −1): −105%
- TGI (average tumor volume) ([2]; 100 mg/kg i.g. daily, Day −1): −89%
- Average volume of new tumors, % less than that of the control group ([2]; 100 mg/kg i.g. daily): 39%
- Absolute number of new tumors ([2]; 100 mg/kg i.g. daily): 25
- Frequency of tumor stabilizations ([2]; 100 mg/kg i.g. daily): 16%
- Average volume of new tumors at the end of the observation period (M) ([2]; 100 mg/kg i.g. daily): 0.20±0.05 cm^3 and 0.20 cm^3
- Tumor growth inhibition compared to Tamoxifen ([2]; FVB mice transgenic for HER-2/neu with breast tumors): inhibits tumor growth to the same extent as clinically approved Tamoxifen
- Signs of toxic damage to the internal organs at autopsy ([2]; end of the experiment, 27-28 days of administration): No specific signs of toxic damage to the internal organs were detected
